Assay results published in patent US6780891B2, “Tramadol analogs and uses thereof” (Sepracor Inc., priority 2001, dated 2004).
Where “and” joins values, the source holds several entries; their conditions need not be identical. Identical values can stand only once. Counter-ions that a name gives are not always drawn. Like-named read-outs stand apart in the source and are kept apart here.

Columns and labels:
NE uptake = type: biochemical, Rat; details: for IC50: read-out: IC50, functional monoamine uptake, NE
5-HT uptake = test: Functional monoamine uptake: 5-HT uptake, rat brain synaptosomes; type: biochemical; details: for Blocking 5-HT uptake compared with racemic tramadol and ODMT: comparison in words of Table 1 values; for IC50: rat brain synaptosomes, [3H]5-HT, 15 min./37° C.
μ receptor [1] = target: T1, μ receptor (Rattus norvegicus, UniProt P33535); test: biochemical; details: IC50, opioid binding, rat cerebral cortex, [3H]DAMGO 1 nM, 60 minutes/22° C.
T1 sequence (P33535 whole entry): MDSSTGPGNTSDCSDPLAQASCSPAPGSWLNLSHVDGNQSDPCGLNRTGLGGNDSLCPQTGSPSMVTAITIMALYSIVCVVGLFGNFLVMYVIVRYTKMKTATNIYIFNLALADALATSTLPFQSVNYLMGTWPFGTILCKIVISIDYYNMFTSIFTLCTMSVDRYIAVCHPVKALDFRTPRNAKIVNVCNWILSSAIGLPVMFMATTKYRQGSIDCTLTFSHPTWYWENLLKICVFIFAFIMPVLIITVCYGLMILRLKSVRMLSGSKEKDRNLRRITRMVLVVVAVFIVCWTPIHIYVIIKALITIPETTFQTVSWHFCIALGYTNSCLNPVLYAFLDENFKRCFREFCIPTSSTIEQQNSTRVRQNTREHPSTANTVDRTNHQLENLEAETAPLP

κ receptor = target: T2, κ receptor (Cavia porcellus, UniProt P41144); test: κ opioid receptor binding, [3H]U 69593; details: guinea-pig cerebellum, [3H]U 69593 0.7 nM, 80 minutes/22° C.
T2 construct: Following incubation, the membranes were rapidly filtered under vacuum through glass fiber filters; from tissue
T2 sequence (P41144 whole entry): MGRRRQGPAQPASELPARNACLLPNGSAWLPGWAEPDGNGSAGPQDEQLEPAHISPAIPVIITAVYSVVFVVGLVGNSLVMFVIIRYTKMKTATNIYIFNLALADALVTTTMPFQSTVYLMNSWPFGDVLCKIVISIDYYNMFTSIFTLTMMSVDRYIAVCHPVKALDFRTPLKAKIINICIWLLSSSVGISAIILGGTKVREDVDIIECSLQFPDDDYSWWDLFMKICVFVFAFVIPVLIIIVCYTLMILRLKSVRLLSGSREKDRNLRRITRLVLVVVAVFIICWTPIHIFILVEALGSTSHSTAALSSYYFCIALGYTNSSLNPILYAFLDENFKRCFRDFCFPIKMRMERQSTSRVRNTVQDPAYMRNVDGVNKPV

δ receptor = target: T3, δ receptor (Cavia porcellus, UniProt A0A286XTF2); test: δ opioid receptor binding, [3H]DPDPE; design: species or system Guinea-pig
T3 construct: Following incubation, the membranes were rapidly filtered under vacuum through glass fiber filters; from tissue
T3 sequence (A0A286XTF2 1-366): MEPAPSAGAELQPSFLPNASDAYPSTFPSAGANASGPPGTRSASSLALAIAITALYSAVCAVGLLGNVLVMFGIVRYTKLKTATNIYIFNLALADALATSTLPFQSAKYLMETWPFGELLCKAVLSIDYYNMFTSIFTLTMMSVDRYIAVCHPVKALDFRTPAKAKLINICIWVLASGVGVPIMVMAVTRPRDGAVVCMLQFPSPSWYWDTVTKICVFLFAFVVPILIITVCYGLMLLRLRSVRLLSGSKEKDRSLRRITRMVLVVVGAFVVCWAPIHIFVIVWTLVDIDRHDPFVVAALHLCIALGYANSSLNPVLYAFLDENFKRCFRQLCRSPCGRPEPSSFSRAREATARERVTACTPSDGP

μ receptor [2] = target: T1, μ receptor; details: for Affinity for the μ receptor compared with ODMT and racemic tramadol: comparison in words of Table 1 values
DA uptake = test: Functional monoamine uptake: DA uptake, rat corpora striatum synaptosomes; type: biochemical; details: [3H]DA, 15 min./37° C.
Experimental: Radioactivity was determined with a scintillation counter (Topcount, Packard) using a liquid scintillation cocktail (Microscint 0, Packard).
These parameters were obtained by Hill equation curve fitting.

[3] = rat hypothalamus, [3H]NE, 20 min./37° C.

COc1cccc(C2(OC)CCCCC2CN(C)C)c1 [(R,R)-OMT, (R,R)-(+)-O-Methyltramadol]
IC50 (NE uptake): 4000 nM
Blocking 5-HT uptake compared with racemic tramadol and ODMT (5-HT uptake): more effective at blocking at 5-HT uptake than racemic tramadol, (R,R)- or (S,S)-ODMT or racemic ODMT
IC50 (5-HT uptake): 650 nM
IC50 (μ receptor [1]): 7670 nM

COc1cccc(C2(O)CCCCC2CN(C)C)c1 (racemic) [(R,R/S,S)-Tramadol, reference compound]
IC50 (μ receptor [1]): 8270 nM and 7640 nM

COC1(c2cccc(O)c2)CCCCC1CN(C)C (racemic) [(R,R/S,S)-ODMOMT, (+/−)-cis-Desmethylmethyltramadol]
IC50 (κ receptor): 789 nM
IC50 (δ receptor): 4920 nM
Blocking NE uptake compared with racemic tramadol or (S,S)-ODMT (NE uptake): more effective at blocking NE uptake than racemic tramadol or (S,S)-ODMT
IC50 (NE uptake; [3]): 120 nM
IC50 (5-HT uptake): 2600 nM
Affinity for the μ receptor compared with ODMT and racemic tramadol (μ receptor [2]): comparable to the corresponding enantiomer/racemate of ODMT, and much greater than that of racemic tramadol
IC50 (μ receptor [1]): 56 nM

CNCCCC1c2ccccc2C=Cc2ccccc21 [Protriptyline, reference compound]
IC50 (NE uptake): 40 nM and 26 nM

CN(C)CC1CCCCC1(O)c1cccc(O)c1 (racemic) [(R,R/S,S)-ODMT, O-desmethyltramadol, reference compound]
IC50 (κ receptor): 3150 nM
IC50 (δ receptor): 7710 nM
IC50 (5-HT uptake): 4000 nM

CN(C)CC1CCCCC1(O)c1cccc(O)c1 (single isomer, unassigned) [(S,S)-ODMT, HCl, reference compound]
IC50 (NE uptake; [3]): 7100 nM
IC50 (5-HT uptake; HCl): 4400 nM

CN(C)CC1CCCCC1(O)c1cccc(O)c1 (single isomer, unassigned) [(R,R)-ODMT, O-desmethyltramadol, reference compound]
IC50 (κ receptor): 1610 nM
IC50 (δ receptor): 4530 nM
IC50 (5-HT uptake): 3300 nM

CO[C@@]1(c2cccc(O)c2)CCCC[C@H]1CN(C)C [(S,S)-ODMOMT, (1S,2S)-(−)-Desmethylmethyltramadol]
IC50 (κ receptor): 2440 nM
Blocking NE uptake compared with racemic tramadol or (S,S)-ODMT (NE uptake): more effective at blocking NE uptake than racemic tramadol or (S,S)-ODMT
IC50 (NE uptake; [3]): 51 nM
IC50 (5-HT uptake): 5000 nM
Affinity for the μ receptor compared with ODMT and racemic tramadol (μ receptor [2]): comparable to the corresponding enantiomer/racemate of ODMT, and much greater than that of racemic tramadol
IC50 (μ receptor [1]): 566 nM

O-methyl tramadol [(S,S)-OMT]
IC50 (NE uptake): 16000 nM

COC1(c2cccc(O)c2)CCCCC1CN(C)C [(R,R)-ODMOMT, (1R,2R)-(+)-Desmethylmethyltramadol]
IC50 (κ receptor): 427 nM
IC50 (δ receptor): 2850 nM
IC50 (NE uptake; [3]): 6800 nM
IC50 (5-HT uptake): 2100 nM
Affinity for the μ receptor compared with ODMT and racemic tramadol (μ receptor [2]): comparable to the corresponding enantiomer/racemate of ODMT, and much greater than that of racemic tramadol
IC50 (μ receptor [1]): 30 nM

(+/−)-trans-O-Methyldidesmethyltramadol HCl [(R,S/S,R)-NDMOMT]
IC50 (5-HT uptake): 16000 nM

COc1cccc([C@@]2(OC)CCCC[C@H]2CN(C)C)c1.O=C(O)/C=C/C(=O)O (relative stereo) [(R,S/S,R)-OMT, (+/−)-trans-O-Methyltramadol Fumaric Acid]
IC50 (NE uptake; [3]): 560 nM
IC50 (DA uptake): 7600 nM
Blocking 5-HT uptake compared with racemic tramadol and ODMT (5-HT uptake): more effective at blocking at 5-HT uptake than racemic tramadol, (R,R)- or (S,S)-ODMT or racemic ODMT
IC50 (5-HT uptake): 290 nM
IC50 (μ receptor [2]; read-out: IC50, opioid binding, μ, rat cerebral cortex, [3H]DAMGO 1 nM, 60 minutes/22° C.): 3290 nM

COc1cccc(C2(OC)CCCCC2CN(C)C)c1 (racemic) [(R,R/S,S)-OMT, O-Methyltramadol]
Blocking NE uptake compared with racemic tramadol or (S,S)-ODMT (NE uptake): more effective at blocking NE uptake than racemic tramadol or (S,S)-ODMT
IC50 (NE uptake): 29 nM
Blocking 5-HT uptake compared with racemic tramadol and ODMT (5-HT uptake): more effective at blocking at 5-HT uptake than racemic tramadol, (R,R)- or (S,S)-ODMT or racemic ODMT
IC50 (5-HT uptake): 550 nM
IC50 (μ receptor [1]): 7870 nM
